Assay results reported in patent US20130315895A1, “COMBINATION OF A cMET INHIBITOR AND AN ANTIBODY TO HGF AND/OR cMET” (priority 2010, published 2013).

Experiments:
Human U87MG Glioblastoma [1] = test: In vivo evaluation of Compounds 3 and 45, alone and in combination with anti-HGF mAb HuL2G7, in human U87MG glioblastoma implanted nude mice (tumor growth delay method); conditions: for induction of regressions: monotherapy p.o. qd x 14; for tumor growth delays / tumor growth delays (% of median TTE of control): monotherapy p.o. qd x 14 (Table 4: Cmpd 45 136.05 mg/kg, Cmpd 3 200 mg/kg)
Method: B. In Vivo Evaluation of Compounds 3 and 45, Alone and in Combination with Anti-HGF mAb HuL2G7, in Human U87MG Glioblastoma Implanted Nude Mice
(§1) Female athymic nude mice (Harlan), 9 weeks of age, were fed ad libitum water (reverse osmosis, 1 ppm Cl2) and an irradiated standard rodent diet (NIH31 Modified and Irradiated) consisting of: 18% protein, 5% fat, and 5% fiber. Mice were housed on irradiated Enrich-O'Cobs™ laboratory animal bedding in static microisolators on a 12-hour light cycle at 21-22° C. (70-72° F.) and 40-60% humidity.
(§2) The human U87MG glioblastoma utilized in the present study was maintained in serial s.c. transplantation in nude mice. Mice were implanted subcutaneously in the flank with a 1 mm^3 fragment of U87MG glioblastoma. Tumors were monitored as the neoplasms reached the desired size, approximately 190 mm^3. At 12 days, when the tumors attained a size between 172-256 mm^3 in calculated tumor volume, the animals were pair-matched into various treatment groups (the mean tumor volume in each group was 190-198 mm^3). Estimated tumor volume was calculated using the formula:
(§3) where w=width and l=length in mm of a U87MG glioblastoma.
Compounds 3 and 45 were prepared by as described above. Compounds 3 and 45 were then prepared for administration as suspensions in 30% Captisol/100 mM citrate at pH 3.0. HuL2G7 was then provided as a 20.7 mg/ml stock solution in normal saline. The stock solution was diluted with normal saline to provide the formulation for injection.
(§4) The concentration of each compound was such that the desired dose was delivered in a volume of 5 μl per gram body weight. Dosing solutions of Compounds 3 and 45 were prepared fresh weekly and stored under refrigeration. Dosing solutions of HuL2G7 were prepared fresh prior to each treatment and were stored under refrigeration along with the stock solution.
On Day 1, animals were pairmatched by tumor size into 8 groups of 10 mice each. […] HuL2G7 was given i.v. at 10 mg/kg qwk×2. Treatment with all agents, either alone or in combination, was initiated on Day 1. Mice treated with monotherapy received the vehicle used for the other agent. There was a vehicle control group which received the Captisol/citrate, pH 3.0 vehicle p.o. qd×14 as well as saline i.v. qwk×2. Treatment groups were compared for statistical significance to the vehicle control. Groups that received the combinations were compared for statistical significance to the monotherapy groups that received the two agents used in combination. The experiment was terminated on Day 43.
(§5) The tumor growth delay (TGD) method was used in this study; treatment-effected median increases in time to endpoint (TTE) of various treatment groups were compared to untreated and vehicle controls. In the TGD method, each animal was euthanized as a cancer death when its U87MG glioblastoma reached a size of 2000 mm^3. TTE values were determined for all groups based on the calculated day reaching endpoint as given by the formula: […]
(§6) where TTE is expressed in days, endpoint volume is in mm^3, b is the intercept, and m is the slope of the line obtained by linear regression of a log-transformed tumor growth data set. The data set is comprised of the first observation that exceeded the study endpoint volume and the three consecutive observations that immediately preceded the attainment of the endpoint volume. The calculated TTE is usually less than the day on which an animal is euthanized for tumor size. […] Animals classified as treatment related deaths (TR) or non-treatment-related metastatic deaths (NTRm) are assigned a TTE value equal to the day of death. Animals classified as non-treatment-related deaths (NTRu or NTRa) are excluded from TTE calculations.
Treatment efficacy was determined from tumor growth delay (TGD), which is defined as the increase in the median TTE for a treatment group compared to the control group:
expressed in days, or as a percentage of the median TTE of the control group: […]

Human U87MG Glioblastoma [2] = test: In vivo evaluation of Compound 45, alone and in combination with anti-HGF mAb HuL2G7, in human U87MG glioblastoma implanted nude mice (tumor growth delay method)
Method: A. In Vivo Evaluation of Compound 45, Alone and in Combination with Anti-HGF mAb HuL2G7, in Human U87MG Glioblastoma Implanted Nude Mice
as §1, with “10” for “9”, “[…])” for “Cl2)”, “Enrich-o′-Cobs™” for “Enrich-O'Cobs™”
as §2, with “glioblastoma” for “glioblastoma utilized in the present study”, “monitored twice weekly then subsequently daily” for “monitored”, “13” for “12”, “126-288” for “172-256”, “184-192” for “190-198”
as §3
Compound 45 was produced as described above. Compound 45 was then prepared for administration in 30% Captisol/25 mM citrate at pH 3.0. HuL2G7 was then provided as a 19.0 mg/ml stock solution in normal saline. The stock solution was diluted with normal saline to provide the formulation for injection.
as §4, with “Compound” for “Compounds 3 and”, “at room temperature.” for “under refrigeration.”
On Day 1, animals were pairmatched by tumor size into 16 groups of 10 mice each. Compound 45 was given p.o. at 10.8, 32.4 and 108 mg/kg qd×14. HuL2G7 was given i.v. at 1, 3 and 10 mg/kg qwk×2. Treatment with both agents either alone or in combination was initiated on Day 1. Mice treated with monotherapy received the vehicle used for the other agent. There was a vehicle control group which received the Captisol/citrate, pH 3.0 vehicle p.o. qd×14 as well as saline i.v. qwk×2. Treatment groups were compared for statistical significance to the vehicle control. Groups that received the combination were compared for statistical significance to the monotherapy groups that received the same dose of the two agents used in combination. The experiment was terminated on Day 44.
as §5
as §6, with “calculations. Treatment efficacy was determined from tumor growth delay (TGD), which is defined as the increase in the median TTE for a treatment group compared to the control group: […]” for “calculations.”

[3] = monotherapy, text summary over doses (Compound 45 daily for 14 days; HuL2G7 i.v. qwk x 2)
[4] = monotherapy: Compound 45 10.8 mg/kg p.o. qd x 14 (HuL2G7 0)
[5] = monotherapy: Compound 45 32.4 mg/kg p.o. qd x 14 (HuL2G7 0)
[6] = monotherapy: Compound 45 108 mg/kg p.o. qd x 14 (HuL2G7 0)

In the case of `O=C(Nc1cn2nc(Sc3nnc4ccccn34)ccc2n1)C1CC1` [Compound 3, N-(6-([1,2,4]triazolo[4,3-a]pyridin-3-ylthio)imidazo[1,2-b]pyridazin-2-yl)cyclopropanecarboxamide], the induction of regressions (Human U87MG Glioblastoma [1]) is reported as “Neither of these agents was able to induce regressions”, the tumor growth delays (Human U87MG Glioblastoma [1]) is reported as 3 days and the “tumor growth delays (% of median TTE of control)” value (Human U87MG Glioblastoma [1]) is reported as “ca. 23%”.
`Cn1cc(-c2ccc3nnn(Cc4ccc5nc(NC(=O)C6CC6)cn5n4)c3c2)cn1` [Compound 13, N-(6-((6-(1-methyl-1H-pyrazol-4-yl)-1H-benzo[d][1,2,3]triazol-1-yl)methyl)imidazo[1,2-b]pyridazin-2-yl)cyclopropanecarboxamide] gave a melting point of 250.2 to 251.6 °C.
For `Cn1cc(-c2ccc3nnc(C(F)(F)c4ccc5nc(NC(=O)C6CC6)cn5n4)n3c2)cn1` [Compound 45, N-(6-(difluoro(6-(1-methyl-1H-pyrazol-4-yl)-[1,2,4]triazolo[4,3-a]pyridin-3-yl)methyl)imidazo[1,2-b]pyridazin-2-yl)cyclopropanecarboxamide], the induction of regressions (Human U87MG Glioblastoma [1]) was “Neither of these agents was able to induce regressions”, the tumor growth delays (Human U87MG Glioblastoma [1]) was 3 days and the “tumor growth delays (% of median TTE of control)” value (Human U87MG Glioblastoma [1]) was “ca. 23%”. For the same molecule, the induction of regressions (Human U87MG Glioblastoma [2]; monotherapy) was “Neither agent was able to induce regressions”, the tumor growth delays (Human U87MG Glioblastoma [2]; [3]) was 3 to 4 days and the “tumor growth delays (% of median TTE of control)” value (Human U87MG Glioblastoma [2]; [3]) was “ca. 30%”. For the same molecule, the “Regressions (CR/PR per 10 mice)” value (Human U87MG Glioblastoma [2]; [4]) was 0/10, the “Tumor Growth Delay (TGD)” value (Human U87MG Glioblastoma [2]; [4]) was 0 days and the “Regressions (CR/PR per 10 mice)” value (Human U87MG Glioblastoma [2]; [5]) was 0/10. The “Tumor Growth Delay (TGD)” value (Human U87MG Glioblastoma [2]; [5]) was 3.9 days, the “Regressions (CR/PR per 10 mice)” value (Human U87MG Glioblastoma [2]; [6]) was 0/10 and the “Tumor Growth Delay (TGD)” value (Human U87MG Glioblastoma [2]; [6]) was 3.1 days.
